For 24 compounds, TGI and GI50 results are on record in PubChem BioAssay (NCI).

Test in all cases: DTP human tumour cell line panel, 48 h
Assay [1] relates to SK-OV-3 ovarian.
The test system of assay [2] is HCC-2998 colon.
Assay [3] has as its system OVCAR-4 ovarian.
Assay [4] relates to HOP-92 NSCLC.
Assay [5] concerns OVCAR-5 ovarian.
Assay [6] has as its system K-562 leukemia.
The subject of assay [7] is A498 renal.
Assay [8] deals with SF-539 CNS.
In assay [9] the test system is HL-60(TB) leukemia.
For assay [10], the system named is SK-MEL-2 melanoma.

Molecules are shown by their SMILES.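 Assay format: 96-well plates, 48-hour exposure. Abbreviation: GI50, concentration required for 50% inhibition of growth. Definition used: TGI = concentration required for complete inhibition of growth.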

With `CCOc1cc[n+](C(=C=[N-])C#N)cc1`, the TGI in [1], in assay [2], in assay [3], in [4], in [5] and in assay [6] was over 100 µM each time. Moreover, the concentration for total growth inhibition (TGI) in assay [7], in assay [8] and in assay [9] was over 100 µM each time.

With `COc1ccc([Se]c2ccc(OC)cc2)cc1`, the TGI in [10] is over 100 µM; in [1], over 100 µM; in [2] it was over 100 µM; in assay [4], 98.7 µM; in assay [6] it was over 100 µM; in assay [7], over 100 µM. Besides, the TGI in [8] and in assay [9] was over 100 µM throughout.

For `COC(=O)C1=C(O)C(C(=O)OC)[C@@]2(O)[C@@H](C(=O)OC)C(c3ccccc3Cl)C[C@@H]1[C@@H]2C(=O)OC` (some centres undefined), the GI50 in assay [10] is 3.62 µM; in assay [1], 23.6 µM; in [2], 14 µM; in [3] it was 3.44 µM; in [4], 16.1 µM; in [5], 15 µM. Also, the GI50 in [6] was 3.76 µM; in assay [7], 14.2 µM; in [8] it was 14 µM. The TGI in assay [10] stood at 17.7 µM; in [1], 63.4 µM; in [2], 28.6 µM; in [3], 13.8 µM; in [4], 54.2 µM; in assay [5], 32.4 µM. In addition, the concentration for total growth inhibition (TGI) was over 100 µM in [6], 32.4 µM in assay [7] and 36.7 µM in assay [8].

In the case of `O=C(OCc1ccccc1)c1ccccc1-c1c2ccc(=O)cc-2oc2cc(OCc3ccccc3)ccc12`, the TGI was 46.7 µM in assay [10]; 56 µM in assay [2]; over 100 µM in [3]; 17.9 µM in [4]; over 100 µM in [5]; over 100 µM in assay [6]. For the same compound, the TGI worked out at 88.2 µM in assay [7], 28.9 µM in [8] and 22.8 µM in [9].

For the compound `Nc1ncnc2c1ncn2COC/C=C/I`, the TGI in [10], in assay [1], in assay [2], in assay [3], in assay [4] and in assay [5] was over 100 µM throughout. Further, the TGI in [6], in assay [7] and in assay [8] was over 100 µM throughout.

Consider `CCCCCCCCCCCCCCCC(N)c1ccccc1` (centres undefined), for which the GI50 in assay [10] was 1.68 µM; in assay [1], 1.58 µM; in assay [2], 1.67 µM; in [3] it was 1.67 µM; in [4], 1.57 µM; in assay [5], 1.49 µM. Moreover, the figures for the GI50 in [6], in assay [8] and in [9] were 1.89 µM, 1.69 µM and 1.37 µM, respectively. The TGI in assay [10] worked out at 3.35 µM; in assay [1] it was 2.92 µM; in assay [2] it was 3.28 µM; in assay [3], 3.45 µM; in [4] it was 3.23 µM; in assay [5], 3.1 µM. Also, the TGI in assay [6] is 4.2 µM; in assay [8] it was 3.17 µM; in assay [9] it was 3.02 µM.

As to `O=S1(=O)C=C(c2ccccc2)C(c2ccccc2)=C1`, the GI50 is 7.81 µM in [1]; 1.71 µM in assay [2]; 1.9 µM in assay [3]; 1.65 µM in assay [4]; 1.69 µM in assay [5]; 1.83 µM in [6]. Further, the GI50 was 1.47 µM in assay [7], 2.14 µM in assay [8] and 2.14 µM in assay [9]. The TGI is 20.2 µM in assay [1]; 3.16 µM in assay [2]; 3.82 µM in assay [3]; 3.19 µM in assay [4]; 3.14 µM in assay [5]; over 100 µM in assay [6]. The TGI in [7] was 3.25 µM; in [8] it was 5.94 µM; in assay [9], 5.21 µM.

For `COc1ccc2c(c1)C(=O)c1c-2n(CCCNCCO)c(=O)c2cc([N+](=O)[O-])ccc12`, the GI50 is 0.427 µM in assay [10]; under 0.01 µM in assay [1]; under 0.0232 µM in [2]; 0.0361 µM in assay [3]; under 0.0108 µM in [4]; under 0.0128 µM in assay [5]. Also, the GI50 in assay [7] was under 0.015 µM; in assay [8], under 0.01 µM; in [9], under 0.01 µM. For the same compound, the TGI in [10] turned out to be 2.3 µM; in assay [1], 1.69 µM; in assay [2], 0.557 µM; in assay [3], 1.19 µM; in [4] it was 0.149 µM; in [5], 0.239 µM. Also, the TGI is under 0.0482 µM in assay [7], under 0.01 µM in assay [8] and 0.122 µM in [9].

`CC(=O)N1CCN(C=S)CC1`: the TGI in assay [1], in assay [2], in [3], in [4], in assay [5] and in assay [6] was over 100 µM each time. The TGI in assay [7], in assay [8] and in assay [9] was over 100 µM in each case.

As to `COc1ccc2c(c1)O/C(=C\c1ccc([N+](=O)[O-])s1)C2=O`, the TGI is over 27 µM in assay [10]; over 62.7 µM in assay [1]; over 100 µM in [2]; 4.91 µM in assay [3]; 5.37 µM in assay [4]; 1.31 µM in assay [6]. Also, the figures for the concentration for total growth inhibition (TGI) in assay [7] and in [9] were over 75.7 µM and over 100 µM, respectively. The GI50 in assay [1] was over 22.7 µM; in [2], 2.91 µM; in assay [3], 1.59 µM; in assay [4], 1.57 µM; in assay [6], 0.285 µM; in assay [7], over 27.4 µM.

Regarding `CC(C)CC1NC(=O)C(C(C)C)NC(=O)CC(C)COC(=O)C(CC(C)C)N(C)C(=O)C(C(C)C)NC(=O)C(C(C)C)OC1=O` (centres undefined), the TGI in [10], in assay [1], in [2], in [4], in [5] and in assay [6] was over 50 µM in each case. The TGI in [7] is over 50 µM; in assay [8] it was 27.5 µM.

On to `CCCCCC/C(CC(=O)CCC(=O)NCCc1ccccc1)=N\NC(=O)c1ccc2ccccc2c1O`, for which the TGI is 53.7 µM in assay [10]; over 100 µM in assay [2]; over 100 µM in assay [3]; over 100 µM in assay [4]; 54.2 µM in assay [5]; 33.7 µM in [9].

For `Cc1c(C(=O)Nc2ccc(Cl)cc2)nc(N)nc1-c1cccc(Cl)c1`, the TGI is over 100 µM in [1]; over 100 µM in [2]; over 100 µM in assay [3]; 95.6 µM in assay [4]; over 100 µM in assay [5]; over 100 µM in assay [6]. Also, the TGI in assay [8] and in assay [9] was over 100 µM each time.

Consider `COn1cc(C(=O)N=C(SC)SC)c2ccccc21`, for which the GI50 was 17.6 µM in [10]; 50.6 µM in assay [1]; 19.8 µM in [2]; over 100 µM in assay [3]; 27.7 µM in assay [4]; 26.2 µM in assay [5]. The GI50 was 2.29 µM in [6] and 18.7 µM in [8]. In addition, the concentration for total growth inhibition (TGI) in assay [10] is 52 µM; in [1] it was over 100 µM; in assay [2], 36.8 µM; in assay [3], over 100 µM; in assay [4], over 100 µM; in assay [5], 73.7 µM. Further, the TGI came out at 17.5 µM in [6] and 43.4 µM in assay [8].

As to `CC1SC(c2cccc(Cl)c2)N(NC(=O)C(O)c2ccccc2)C1=O` (centres undefined), the GI50 in [10] was over 100 µM; in [1] it was over 100 µM; in assay [2], over 100 µM; in assay [3], 75.4 µM; in [4], over 100 µM; in assay [5] it was over 100 µM. The GI50 in [6] was 69.4 µM; in [7], over 100 µM; in assay [8] it was over 100 µM. The TGI in assay [10], in assay [1], in assay [2], in assay [3], in assay [4] and in assay [5] was over 100 µM each time. Further, the TGI in [6], in [7] and in assay [8] was over 100 µM throughout.

On to `N#CC(CC(=O)O)=C(c1ccccc1)c1ccccc1`, for which the TGI in assay [10], in assay [1], in assay [2], in assay [3], in assay [4] and in assay [5] was over 100 µM in each case. The TGI in assay [6], in assay [7] and in assay [8] was over 100 µM in each case.

As for `O=C1OC(=O)C2C1C1C(c3ccccc3)=C(c3ccccc3)C2(O)C2C(=O)OC(=O)C12` (centres undefined), the TGI in assay [10], in [1], in assay [2], in [3], in [4] and in assay [5] was over 100 µM in each case. The TGI in assay [6] and in assay [7] was over 100 µM in each case.

Regarding `CC(C)Cn1cnc2c(SCc3ccccn3)nc(N)nc21`, the TGI in assay [10], in assay [1], in [2], in assay [3], in assay [4] and in assay [5] was over 100 µM in each case. Besides, the TGI in assay [6], in [7] and in [9] was over 100 µM in each case.

For `CCCNC(=O)Nc1ccc2c(c1)Cc1cc(N(CCCl)CCCl)ccc1-2`, the TGI was 62.9 µM in assay [10]; 67.6 µM in [2]; 67.8 µM in [4]; over 100 µM in assay [5]; over 100 µM in assay [6]; 33.4 µM in [7]. In addition, the TGI is 66.2 µM in assay [8] and over 100 µM in [9].

Consider `O=S1Cc2ccccc2CSS1` (centres undefined), for which the TGI in [1] was over 100 µM; in [2], 73.7 µM; in assay [3], 31.7 µM; in [4], 31.8 µM; in assay [5], 37.4 µM; in [6], 38.1 µM. The TGI was over 100 µM in assay [7], 29.8 µM in assay [8] and 20 µM in assay [9].

Turning to `CC(=O)Nc1ccc(OCC(O)CO)cc1` (centres undefined), the TGI in assay [10], in assay [1], in assay [2], in assay [3], in [4] and in assay [5] was over 100 µM throughout. Moreover, the TGI in assay [6], in [7] and in assay [8] was over 100 µM throughout.

As to `CC1CCC2[C@@H](C)COC3O[C@]4(C)CCC1C32OO4` (some centres undefined), the TGI in assay [10], in [1], in [2], in assay [3], in assay [4] and in [5] was over 100 µM in each case. For the same compound, the TGI in assay [6], in [7] and in [8] was over 100 µM each time.

Regarding `C=C1C(OCCO)OC2O[C@]3(C)CCC4[C@H](C)CCC1C24OO3` (some centres undefined), the GI50 in assay [10] is 71.1 µM; in [1] it was over 100 µM; in [2] it was over 100 µM; in assay [3], 6.12 µM; in [5], 19.6 µM; in [6], 4.16 µM. For the same compound, the GI50 in [7] is over 100 µM; in [8], 36.6 µM; in assay [9] it was 3.1 µM. Further, the TGI in assay [10], in assay [1], in [2], in assay [3], in [5] and in assay [6] was over 100 µM in each case. Further, the TGI in assay [7] is over 100 µM; in [8], over 100 µM; in [9] it was 15.6 µM.

`C/C(=N\NS(=O)(=O)c1ccccc1)c1ccc[n+]([O-])n1`: the TGI in [1], in [2], in assay [3], in [4], in assay [5] and in assay [6] was over 100 µM in each case. Besides, the values for the TGI in assay [7], in assay [8] and in [9] were over 100 µM, over 100 µM and 69.9 µM, respectively.
